Results on 35 compounds are retold here after the Deep4Chem optical property database.

The series in a line: solvent given as SMILES.

`N#Cc1ccc2c(c1)C1(c3cc(C#N)ccc3-2)c2ccccc2N(c2ccccc2)c2ccccc21` had an emission maximum (in Cc1ccccc1) of 492.18 nm.

Turning to `O=C1c2cc(-c3ccccc3)ccc2-c2ccc(-c3ccccc3)cc21`, the emission maximum (in C1CCOC1) turned out to be 360 nm.

For `COc1ccc(C2=C3C=CC(=[N+](C)C)C=C3[Si](C)(C)c3cc(N(C)C)ccc32)c(OC)c1`, the emission maximum (in O) is 663 nm.

`c1ccc(-c2nc(-c3ccccc3)nc(-c3ccc(-n4c5ccccc5c5cc(-n6c7ccccc7c7ccccc76)ccc54)c4c5ccccc5n(-c5ccccc5)c34)n2)cc1` yielded an emission maximum (in C1CCOC1) of 496.59 nm, an emission maximum (in Cc1ccccc1) of 429 nm and an emission maximum (in ClCCl) of 531.36 nm.

As to `CCn1c2ccccc2c2cc(/C=C/C(=O)c3ccc4c(c3)c3cc(C(=O)/C=C/c5ccc6c(c5)c5ccccc5n6CC)ccc3n4CC)ccc21`, the emission maximum was determined as 430 nm (in C1CCCCC1); 474 nm (in C1CCOC1); 491 nm (in CC#N); 476 nm (in CC(C)=O); 521 nm (in CCO); 475 nm (in CCOCC). In addition, the emission maximum reads like this: (in CN(C)C=O) 487 nm; (in CO) 542 nm; (in CS(C)=O) 493 nm; (in ClC(Cl)(Cl)Cl) 454 nm; (in ClC(Cl)Cl) 475 nm.

Regarding `CN(C)c1ccc(/C=C2\CC/C(=C\c3ccc(N(C)C)cc3)C2=O)cc1`, the emission maximum (in C1CCOC1) is listed as 529 nm; the emission maximum (in C1COCCO1) is recorded as 493 nm; the emission maximum (in CC#N) stood at 587 nm; the emission maximum (in CC(C)=O) is recorded as 565 nm; the emission maximum (in CC(C)O) is reported as 590 nm; the emission maximum (in CCO) is 613 nm. For the same compound, the emission maximum is 528 nm (in CCOC(C)=O); 575 nm (in CN(C)C=O); 635 nm (in CO); 588 nm (in CS(C)=O); 482 nm (in Cc1ccccc1); 478 nm (in ClC(Cl)(Cl)Cl). Further, the emission maximum came to 543 nm (in ClC(Cl)Cl), 547 nm (in ClCCl) and 497 nm (in S=C=S).

In the case of `Cc1cccc(C)c1-c1cc2c(C)c3c4ccc5nc6c(ccc7c8c(C)c9cc(-c%10c(C)cccc%10C)c(-c%10c(C)cccc%10C)cc9c(C)c8c76)nc5c4c3c(C)c2cc1-c1c(C)cccc1C`, for the setting “in ClC(Cl)Cl”, the emission maximum stood at 670 nm.

For the setting “in ClC(Cl)Cl”, `CCc1c(CC)c2n(c1C)[B-](F)(F)[N+]1=C(C)c3cc4c(cc3C1=C2)=[N+]1C(=Cc2c(CC)c(CC)c(C)n2[B-]1(F)F)C=4C` yielded an emission maximum of 774 nm.

Compound `c1ccc(N2N=C(c3cccc4ccccc34)CC2c2ccc3ccc4cccc5ccc2c3c45)cc1` (stereo not drawn) gave an emission maximum (in ClCCl) of 455 nm.

Take `CCC1=C(C)C2=Cc3c4ccccc4c4n3[B-](c3ccc5cc6ccccc6cc5c3)(Oc3ccccc3-4)[N+]2=C1C` (stereo not drawn): the emission maximum runs as follows: (in CC#N) 635 nm; (in CCCCCC) 636 nm; (in Cc1ccccc1) 641 nm; (in ClCCl) 639 nm.

`COc1cc2cc(C#Cc3ccc(/C=C(\C#N)C(=O)O)cc3)c(=O)oc2cc1OC`: under “in CC#N”, the emission maximum came out at 464 nm.

On to `O=C1Cc2ccc(cc2)CC(=O)Cc2ccc(c3nsnc23)C1`, for which the emission maximum was found to be 468 nm (in C1CCCCC1), 495 nm (in CC#N) and 488 nm (in ClC(Cl)Cl).

Take `CC1(C)C(/C=C/C2=C(Oc3ccc(CCN=C=S)cc3Br)C(=C/C=C3/N(CCCS(=O)(=O)[O-])c4ccccc4C3(C)C)/CCC2)=[N+](CCCS(=O)(=O)[O-])c2ccccc21`: the emission maximum (in CO) was 798 nm.

As to `C(=C\c1cc(-c2ccc3ccccc3c2)c(/C=C/c2ccc(N(c3ccccc3)c3ccccc3)cc2)cc1-c1ccc2ccccc2c1)/c1ccc(N(c2ccccc2)c2ccccc2)cc1`, the emission maximum (in ClCCl) amounted to 489 nm.

With `CN(C)c1ccc(C(=Cc2ccc(/C=C(\C#N)c3ccccc3)cc2)c2ccc(N(C)C)cc2)cc1`, the emission maximum (in C1CCOC1) was determined as 616 nm.

On to `CC(C)(C)NC(=O)c1ccc(Br)c2ccc3c4ccccc4c4ccccc4c3c12`, for which the emission maximum (in ClCCl) amounted to 388 nm.

Take `COc1ccc(/N=N/c2c(O)c3ccccc3n(C)c2=O)c(S(=O)(=O)O)c1`: the emission maximum (in C1CCOC1) is reported as 527 nm; the emission maximum (in CC(C)=O) is given as 528 nm; the emission maximum (in CCOC(C)=O) is reported as 525 nm; the emission maximum (in CO) turned out to be 532 nm; the emission maximum (in CS(C)=O) turned out to be 548 nm; the emission maximum (in Cc1ccccc1) is reported as 519 nm. Besides, the emission maximum was determined as 542 nm (in ClCCl) and 583 nm (in O).

For the compound `C(=C1c2ccccc2CCc2ccccc21)c1ccc(-c2cc(-c3ccc(C=C4c5ccccc5CCc5ccccc54)cc3)cc(-c3ccc(C=C4c5ccccc5CCc5ccccc54)cc3)c2)cc1`, the emission maximum (in C1CCOC1) is on record as 403 nm.

For the setting “in C1CCOC1”, `CC(C)(C)c1ccc(C2=C(c3ccc(N(c4ccccc4)c4ccccc4)cc3)S(=O)(=O)c3c2sc(-c2ccc(N(c4ccccc4)c4ccccc4)cc2)c3-c2ccc(C(C)(C)C)cc2)cc1` gave an emission maximum of 591 nm.

For the setting “in C1CCOC1”, `CCN(CC)c1ccc(-c2nc3c(nc2-c2ccc([B-](F)(c4c(C)cc(C)cc4C)c4c(C)cc(C)cc4C)cc2)c2ccccc2n3C)cc1` yielded an emission maximum of 497.22 nm.

Regarding `CC(C)c1cccc(C(C)C)c1N1C(=O)c2cc(Cl)c3c4c(Cl)cc5c6c(cc(Cl)c(c7c(Cl)cc(c2c37)C1=O)c64)C(=O)N(c1c(C(C)C)cccc1C(C)C)C5=O`, the emission maximum (in Cc1ccccc1) is 552 nm.

For the setting “in Cc1ccccc1”, `C(#Cc1nc2ccccc2s1)c1ccc(N(c2ccccc2)c2ccccc2)cc1` registered an emission maximum of 437 nm.

As for `CCNc1ccc2c(c1)C(C)(C)C(=O)C=C2`, where the note is “in O”, the emission maximum is listed as 541 nm.

Regarding `CCn1c(-c2ccc(N(c3ccccc3)c3cccc4ccccc34)cc2)c(-c2ccc3ccccc3c2)c(-c2ccc3ccccc3c2)c1-c1ccc(N(c2ccccc2)c2cccc3ccccc23)cc1`, the emission maximum (in CCOC(C)=O) turned out to be 434 nm.

`CCCCn1c2ccc(-c3cccs3)cc2c2c1c1c3ccc(-c4cccs4)cc3n(CCCC)c1c1c3ccc(-c4cccs4)cc3n(CCCC)c21` displayed an emission maximum (in C1CCOC1) of 424 nm.

As to `CCN(CC)c1ccc2c(-c3ccc(S(=O)(=O)[O-])cc3S(=O)(=O)[O-])c3ccc(=[N+](CC)CC)cc-3oc2c1`, the emission maximum (in CC#N) is recorded as 573 nm, the emission maximum (in CCO) worked out at 578 nm, the emission maximum (in CN(C)C=O) amounted to 574 nm and the emission maximum (in O) was found to be 588 nm.

`C(=C\c1c2ccccc2cc2ccccc12)/c1ccc(Oc2ccc3ccccc3c2-c2c(Oc3ccc(/C=C/c4c5ccccc5cc5ccccc45)cc3)ccc3ccccc23)cc1`: the emission maximum (in ClCCl) was determined as 486 nm.

`COc1ccc(/C=C/c2ccncn2)cc1` came in with an emission maximum (in ClCCl) of 418 nm.

For `C1=Cc2nc1c(-c1ccccc1)c1ccc([nH]1)c(-c1ccccc1)c1nc(c(-c3ccccc3)c3ccc([nH]3)c2-c2ccccc2)C=C1`, the emission maximum runs as follows: (in CC(=O)N(C)C) 650 nm; (in ClCCl) 651 nm.

For `O=C1c2ccccc2-c2cc3ccccc3c(=O)n21`, the emission maximum was 443 nm (in CC#N), 445 nm (in CO), 455 nm (in CS(C)=O) and 445 nm (in ClC(Cl)Cl).

As to `CC(C)(C)c1ccc(C2=CC(c3ccccc3)=[N+]3C2=Nc2c(-c4ccc(C(C)(C)C)cc4)cc(-c4ccccc4)n2[B-]3(F)F)cc1`, the emission maximum amounted to 681 nm (in C1CCOC1), 683 nm (in Cc1ccccc1) and 680 nm (in ClC(Cl)Cl).

With `Cc1ccc(/C=C(\c2ccccc2)c2nc3ccccc3s2)cc1`, the emission maximum was found to be 380 nm (in C1CCCCC1) and 410 nm (in CO).

Consider `CCC1=C(C)C(=O)n2c1cc1c(C)c(CC(=O)O)c(C)n1c2=O`, for which the emission maximum is given as 535 nm (in CO), 505 nm (in CS(C)=O), 485 nm (in ClC(Cl)Cl) and 465 nm (in c1ccccc1).

The compound `N#Cc1nc(N(Cc2ccccc2Cl)Cc2ccccc2Cl)c(C#N)nc1N(Cc1ccccc1Cl)Cc1ccccc1Cl` yielded an emission maximum (in ClC(Cl)Cl) of 567 nm.

In the case of `CN(C)CCCN1c2ccccc2Sc2ccccc21`, the emission maximum reads like this: (in CC#N) 444 nm; (in CO) 444 nm; (in O) 452 nm.
